From publication PMC5636194 (Journal of nanomedicine & nanotechnology, 2017)

Key:
T98G cells [1] = assay: Cellular bioenergetics analysis (Seahorse XF24 oxygen consumption); format: cell-based
Method: (§1) Assay was performed according to manufacturer’s directions and as previously described, where U87 and T98G cells were plated at 30,000 cells/well in an XF24 plate and allowed to attach overnight. Media was replaced an hour before onset of the assay with XF24 media, and then, rotenone/antimycin A mix, FCCP, and oligomycin were diluted in XF24 media and loaded into the provided cartridge to obtain final concentrations of 100 nM, 300 nM, and 1 µg/mL, respectively. […] Addition of the compounds into the medium took place at designated time points, and oxygen consumption was examined using a Seahorse Bioscience XF24 Extracellular Flux Analyzer.

U87 cells [2] = assay: as above; format: cell-based
Method: as §1

U87 cells [3] = assay: ATP quantification (luciferase luminescence); format: cell-based; conditions: 10 µM, 24 hours
Method: U87 and T98G cells were seeded into 6-well plates at 200,000 cells/well in 1 mL DMEM high glucose with pyruvate (10% FBS and 1% Pen/Strep) and allowed to grow overnight. […] Following a modified protocol outlined in an ATP kit obtained from Life Technologies, cells were washed twice with PBS, then lysed with 150 uL of ATP assay buffer (500 mM Tricine buffer, pH 7.8, 100 mM MgSO4, 2 mM EDTA, and 2 mM sodium azide) containing 1% Triton X-100, dislodged by scraping with a pipette tip, and transferred to 1.5 mL Eppendorf tubes on ice for 5 minutes. 10 uL of cell lysate was then added in triplicate to a white 96-well plate, also containing ATP standards. Before reading the plate, 100 uL of ATP assay buffer containing 90 µg/mL D-luciferin, 20 µM DTT, and 25 µg/mL Luciferase) was added to each well. Luminescence was calculated using a Tecan Infinite F200 plate reader. Protein concentration was also determined using the Pierce 660 nm Protein Assay (660 nm absorbance), with ATP production standardized to protein values.

T98G cells [4] = assay: Glucose quantification in medium; format: cell-based; conditions: 10 µM, 48 and 72 hours
Method: Glucose was measured per instructions from a kit manufactured by Sigma-Aldrich. Briefly, 200,000 U87 and T98G cells were seeded into a 6-well plate and incubated overnight. […] After designated times, medium was removed, diluted 1:100 in glucose assay buffer (glucose oxidase, horseradish peroxidase, and O-dianisidine), then added to a 96-well plate at a 1:3 dilution in glucose assay buffer. The plate was then incubated at 37°C and 5% CO2 for 30 minutes, and the reactions halted by the addition of 66 uL of 12 N sulfuric acid. Absorbance values were evaluated at 540 nm on a Biotek Synergy 2 plate reader.

T98G cells [5] = assay: Cell viability (calcein AM); format: cell-based; conditions: 10 µM
Method: (§2) U87 and T98G cells were seeded at 750 cells/well in 100 µL DMEM high glucose with pyruvate (10% FBS and 1% Pen/Strep) in a black, 96-well flat-bottomed plate, and allowed to attached overnight. […] The next morning, the plates were washed with 200 µL/well 1X PBS, which was removed and replaced with 95 µL calcein AM reagent at 1:1000 dilution in 1X PBS.

U87 cells [6] = assay: Cell viability (calcein AM); format: cell-based
Method: as §2

T98G cells [7] = assay: Liquid colony formation assay (4 weeks); format: cell-based; conditions: 10 µM
Method: (§3) Cells were seeded into 6-well culture plates (Falcon) at a concentration of 50 cells/well in 1 mL DMEM high glucose with pyruvate (Gibco), 10% FBS, and 1% Pen/Strep. Treatments were added to each well to obtain a pre-determined final concentration in 2 mL/well total volume. Plates were incubated for 4 weeks undisturbed, and only carefully received a media change at week 3 with or without drug treatments if colonies were not visible. Following completion of the 4-week incubation period, colonies were stained as previously described. […] Stained colonies were counted, with the number and size documented.

U87 cells [8] = assay: Liquid colony formation assay (4 weeks); format: cell-based; conditions: 10 µM
Method: as §3

[9] = In vivo bio-distribution (LC-MS/MS, noncompartmental PK); design: species or system mice (CD-1); conditions: female, mouse; CD-1 mice, single IV dose 8 mg/kg, plasma
Method: Female mice (CD-1 background, 5–6 weeks old) were used for all bio-distribution studies. […] Plasma was processed from whole blood by centrifugation of EDTA-treated blood for 10 minutes at 9,600g, then stored at −80°C until analyzed. In addition, kidneys, spleen, lung, liver, and brain were removed, weighed; flash frozen, then homogenized in a 3-fold volume of PBS for further analysis and stored at −80°C. […] Next, 100 µL of each sample (plasma or tissue homogenate) was crashed with 200 µL methanol+0.1% formic acid+50 ng/mL (final concentration) n-benzyl benzamide internal standard, vortexed for 15 seconds, incubated at room temperature for 10 minutes, then centrifuged at 16,000g for 5 minutes at 4°C. 250 µL of supernatant was then transferred to an Eppendorf tube, centrifuged as previously described, then 195 µL of supernatant transferred to an HPLC vial with insert for analysis by HPLC-MS/MS (AB Sciex 3200 QTrap). […] The limit of detection (LOD) was set at the standard concentration providing an analyte signal three-fold above blank matrix. […] Per UTSW’s lab SOPs, samples falling below LOQ and above LOD are assigned a value of ½LOQ. Samples falling below LOQ and LOD are assigned a value of 0.

**Q.** Which results are given for `CN(C)c1ccc2nc3ccc(=[N+](C)C)cc-3sc2c1` [MB, methylene blue]?
**A.** Increase in OCR (T98G cells [1]; 10 µM): 1.5 fold; Oxygen consumption rate (OCR) (T98G cells [1]; 1 and 10 µM): significantly increased; Oxygen consumption rate (OCR) (U87 cells [2]; 10 µM): significant increase; Oxygen consumption rate (OCR) (U87 cells [2]; lower treatment concentration (1 µM)): not seen; ATP levels compared to control (U87 cells [3]): increased; Sample glucose compared to untreated cells (T98G cells [4]): significant increases; Initial reduction in cell viability (T98G cells [5]; 24 and 72 hours): 25%; Additional reduction in cell viability (T98G cells [5]; through […]): ~ 50%; Cell viability over time course (U87 cells [6]; 10 µM, 24, 72 and […]): did not induce cell death until 72 and 144 hours; Cell viability (U87 cells [6]; 10 µM, 24-hour treatment): increase in cell viability; Average colony size compared to control (T98G cells [7]): significantly reduced; Average number of colonies (T98G cells [7]): significantly reduced; Average colony size compared to control (U87 cells [8]): significantly reduced; Average number of colonies (U87 cells [8]): reduced; AUC [9]: 2130 ng·h/mL
